# Earlier results, collected in patent publication US20250127863A1, “ANTIMICROBIAL PEPTIDE FOR ONYCHOMYCOSIS” (CBMR SCIENTIFIC NANOSCIENCE B.V., priority 2019, published 2025).
# Key:
# [1] = test system: onychomycosis; conditions: systemic use; cited from earlier work
# [2] = test system: onychomycosis; conditions: topical, specialist setting; after 48 weeks of treatment; cited from earlier work
SMILES,(mycological) cure [1] [%],cure rates [2]
CN(C/C=C/C#CC(C)(C)C)Cc1cccc2ccccc12 [terbinafine],70.9,–
C=C1CCN([C@H](C)[C@](O)(Cn2cncn2)c2ccc(F)cc2F)CC1 [efinaconazole],–,15.2-17.8%
Clc1ccc(C(Cn2ccnc2)OCc2ccsc2Cl)c(Cl)c1 (stereo not drawn) [tioconazole],–,22%
